Assay [1] deals with MCL1 protein in PC3 and WAC2 cells. The experiment in a line: Western blot of MCL1 protein in treated cells. The following applies: PC3 or WAC2 cells, 4 h, 10 µM LeuP, 30 µM BTZ or 10 µM LeuP + 30 µM BTZ (Fig. 5), BTZ 10, 20 or 30 µM in PC-3 (Fig. S4), N = 3. Format: cell-based, human. How it is done: (§1) Whole-cell lysates were prepared by lysing cells on ice with 1× RIPA buffer (Boston BioProducts): 50 mM Tris-HCl pH 7.4, 150 mM NaCl, 1% NP40, 0.5% sodium deoxycholate and water (rest) supplemented with protease inhibitors (1 mM AEBSF, 0.8 μM aprotinin, 0.05 mM bestatin, 0.015 mM E-64, 0.02 mM leupeptin, 0.01 mM pepstatin A). Protein lysates were resolved by sodium dodecyl sulfate–polyacrylamide gel electrophoresis and transferred to polyvinylidene fluoride membrane in a wet transfer system for 1 h at 100 V. Membranes were incubated with anti-MCL1 Abs (D2W9E and D35A5, Cell Signaling), anti-BAX Abs (D2E11, Cell Signaling), anti-P18 Abs, DCS-118 from Cell Signaling, anti-β-actin Abs, PA1–21167, from Pierce (Rockford, IL, USA), and anti-CDK6 Ab, (C-21): sc-177 from Santa Cruz at a dilution of 1:1000, at 4 °C overnight. HRP-conjugated secondary Abs were used for detection using ECL2 reagent (Pierce). Immunoblots were visualized on Bio-Rad ChemiDoc MP imaging system.
Fig. 5 MCL1 impact on P18 degradation. […] Quantification of band intensity shown below blot. […] The statistical significance was determined by unpaired Student t-test where […].
Figure S4. […] Quantification of band intensity shown below blot. […] The statistical significance was determined by unpaired Student t-test where *P<0.05; **P<0.01; ***P<0.001.
A general note: A western blot detects proteins with antibodies after separation by electrophoresis.

Assay [2] deals with P18 protein in PC3 and WAC2 cells. The assay is described as follows: Western blot of P18 protein in treated cells. The following applies: for P18 protein level: Western blot, PC3 or WAC2 cells, 4 h, 10 µM LeuP, 30 µM BTZ or 10 µM LeuP + 30 µM BTZ (Fig. 5), BTZ 10, 20 or 30 µM in PC-3 (Fig. S4), N = 3. The assay is classed as cell-based, human. How it is done:
as §1
Fig. 5 MCL1 impact on P18 degradation. Western blot of DMSO control (0.3%), 10 µM leupeptin (LeuP), 10 µM LeuP + 30µM bortezomib (BTZ), or 30 µM BTZ treated (a) PC3 cells or (b) WAC2 cells for 4 h. Quantification of band intensity shown below blot. All data are presented as mean ± S.D., N = 3. The statistical significance was determined by unpaired Student t-test where […].
Figure S4. Bortezomib inversely impacts MCL1 and P18. Western blot of bortezomib treated PC-3 cells (10, 20, or 30 uM) for 4 hours. Quantification of band intensity shown below blot. All data are presented as mean ± S.D., N=3. The statistical significance was determined by unpaired Student t-test where *P<0.05; **P<0.01; ***P<0.001.

The target in assay [3] is T1, P18 protein (human P18INK4C residues 1-168), recombinant (human, UniProt P42773 1-168).
T1 construct: Human P18 (P18INK4C, CDKN2C), residues 1-168, called full-length P18 protein in the results; The purification of this protein is not described; only that of His6-MCL1 is; also called CDKN2C; full-length P18 protein; source: E. coli BL21(DE3), recombinant
T1 sequence (looked up): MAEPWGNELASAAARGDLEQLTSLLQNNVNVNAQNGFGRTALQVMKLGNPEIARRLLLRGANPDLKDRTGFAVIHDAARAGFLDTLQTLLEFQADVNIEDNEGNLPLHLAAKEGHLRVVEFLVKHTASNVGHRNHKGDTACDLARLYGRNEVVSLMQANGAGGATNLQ
The assay is described as follows: pull-down; in vitro pulldown of recombinant P18, P16, truncated and chimeric proteins (IP) with recombinant MCL1 (IB). The following applies: both partners purified.

As for `CC(=O)N[C@@H](CC(C)C)C(=O)N[C@@H](CC(C)C)C(=O)N[C@H](C=O)CCCNC(=N)N` [leupeptin], the MCL1 protein level entry in assay [1] was “marginal to no impact”. For the same molecule, the P18 protein level entry in assay [2] was “marginal to no impact”.
Take `CC(C)C[C@H](NC(=O)[C@H](Cc1ccccc1)NC(=O)c1cnccn1)B(O)O` [bortezomib]: in assay [1], the MCL1 protein level result was “increase in MCL1 protein”. Besides, the P18 protein level result in assay [2] is recorded as “decrease in P18 protein”. In addition, the “effect of bortezomib on MCL1-induced loss of P18 protein” value in assay [2] (proteasome inhibitor bortezomib, Fig. 5 and Fig. S4) was “does not rescue this effect”.

B1: His6-MCL1 (human MCL1 residues 163-326) (domain or fragment, UniProt Q07820 163-326, looked up)
chain: TPPPAEEEEDELYRQSLEIISRYLREQATGAKDTKPMGRSGATSRKALETLRRVGDGVQRNHETAFQGMLRKLDIKNEDDVKSLSRVMIHVFSDGVTNWGRIVTLISFGAFVAKHLKTINQESCIEPLAESITDVLVRTKRDWLVKQRGWDGFVEFFHVEDLEG
notes: Named His6-MCL1 in the FPA; called rMCL1 in the pull-downs; also called His-MCL1; recombinant MCL1; source: E. coli BL21(DE3), purified (nickel column, gel filtration); not shown: His6, N-terminal, kept
Consider B1, for which the binding result in assay [3] was “binds”.

For the origin of these results see publication PMC7048787, “MCL1 binding to the reverse BH3 motif of P18INK4C couples cell survival to cell proliferation” (Cell Death & Disease, 2020).
